# From PubChem BioAssay (NCI)
#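 How tested: cells in 96-well plates exposed to compound for 48 hours at five concentrations. At the GI50, growth is halved. At the TGI there is no net growth.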
# Key:
# Experiment in all cases: inhibition of tumour cell growth, NCI panel, 48 h
# [1] = test system: OVCAR-8 ovarian
# [2] = test system: SR leukemia
# [3] = test system: NCI-H23 lung
# [4] = test system: SNB-19 CNS
# [5] = test system: A498 renal
# [6] = test system: IGROV1 ovarian
# [7] = test system: K-562 leukemia
# [8] = test system: M14 melanoma
# [9] = test system: RXF 393 renal
# [10] = test system: HCT-116 colon
SMILES,TGI [1] [µM],TGI [2] [µM],TGI [3] [µM],TGI [4] [µM],TGI [5] [µM],TGI [6] [µM],TGI [7] [µM],TGI [8] [µM],TGI [9] [µM],TGI [10] [µM],GI50 [1] [µM],GI50 [2] [µM],GI50 [3] [µM],GI50 [4] [µM],GI50 [5] [µM],GI50 [6] [µM],GI50 [7] [µM],GI50 [8] [µM],GI50 [9] [µM],GI50 [10] [µM]
CC(C)(C)OC(=O)NCCCCC1NC(=O)[C@@H]2Cc3c([nH]c4ccccc34)C(c3ccccc3)N2C1=O (stereo not given in full),> 100,62.8,> 100,> 100,> 100,> 100,> 100,92.3,42.2,> 100,,,,,,,,,,
N#Cc1c2c(c(Nc3ccc(Cl)cc3)n3c1nc1ccccc13)CCCC2,> 100,> 100,> 100,> 64.2,> 100,> 100,> 100,> 100,> 85.1,> 100,,,,,,,,,,
COc1ccc(/[N+]([O-])=C/c2ccccc2OC(=S)S)cc1,45,> 100,85.5,> 100,> 100,> 100,> 100,91.5,> 100,73.5,,,,,,,,,,
Cc1cc(N(CCCl)CCCl)ccc1/C=N\NC(=O)c1cccnc1,> 100,> 100,> 100,> 100,2.92,> 100,> 100,> 100,48.6,> 100,25.9,4.81,18.4,> 100,1.42,35.9,20.1,34.4,19.2,26.9
CC(=O)OC/C=C/Cn1nc(Br)c(=O)[nH]c1=O,> 100,> 100,> 100,> 100,> 100,> 100,> 100,> 100,> 100,> 100,,,,,,,,,,
COc1ccc(NC(=S)Nc2cccc(C)n2)cc1,> 100,> 100,> 100,> 100,> 100,> 100,> 100,> 100,> 100,> 100,,,,,,,,,,
CCOC(=O)C1=C(O)c2c(OC)ccc(OC)c2C(=O)C1=O,> 100,> 100,> 100,> 100,> 100,> 100,> 100,> 100,> 100,> 100,,,,,,,,,,
O=C(CCc1ccccc1)NCCc1ccc(O)c(O)c1,> 85.6,> 77.3,> 100,> 100,> 100,> 100,22.4,> 100,> 100,> 66.7,,,,,,,,,,
O=C(NCc1ccc(Cl)c(Cl)c1)c1nc2ccccc2nc1NCc1ccc(Cl)c(Cl)c1,> 100,> 100,> 100,> 100,> 100,> 100,> 100,> 100,> 100,> 100,,,,,,,,,,
CC(=O)CC(=O)N1CCOC1=O,> 10,> 10,> 10,> 10,> 10,> 10,> 10,> 10,> 10,> 10,,,,,,,,,,
C[C@@H](c1ccccc1)N(CC#N)[C@H]1CCC[C@]1(O)/C=C/c1ccc2c(c1)OCO2,> 25,> 25,> 25,> 25,6.98,> 25,> 25,> 25,> 25,> 25,,,,,,,,,,
CC(C)S1=C2C(=O)CC(C)(C)CC2=Nc2ccccc21 (stereo not given),> 100,> 100,> 100,> 100,> 100,> 100,> 100,> 100,> 100,> 100,,,,,,,,,,
CCCCCNC(=O)OC1CCn2c1nc1c2C(=O)C(C)=C(N2CC2)C1=O (stereo not given),5.31,> 100,6.2,11.5,3.31,3.43,7.75,4.04,1.82,4.33,,,,,,,,,,
CN1Cc2c(ccc3c2OCO3)[C@@H]2[C@H](O)Cc3cc4c(cc3[C@@H]21)OCO4,> 51.5,> 100,12.8,> 26.5,6.07,> 100,> 100,> 28.4,> 26.2,> 44.7,,,,,,,,,,
COc1cc(CC2C(=O)OCC2Cc2ccc(OC)c(OC)c2)ccc1O (stereo not given),> 100,> 100,> 100,> 100,> 100,> 100,> 100,> 100,> 100,> 100,,,,,,,,,,
